According to PubChem BioAssay AID179 (DTP/NCI, 2004):
The source made the active and inactive calls.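 The calls were made as follows: active = compounds giving half or more protection of infected cells from virus-caused growth loss, again on retest; inactive = the rest.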

Test system: CEM cells HIV-1 protection, formazan growth assay
Test: NCI AIDS Antiviral Assay
Conditions: for IC50: measured here: growth of uninfected CEM cells
Outline: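 Protection of CEM cells against HIV-1 measured as cell growth via soluble formazan read-out, with five concentrations tested on both infected and uninfected cells; failure to protect may reflect toxicity.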

## C[C@]12CC[C@H](OC(=O)Cc3ccc(N(CCCl)CCCl)cc3)CC1CC[C@@H]1C2CC[C@]2(C)NC(=O)CCC12 (some centres not stated)
  EC50: > 17.8 µM
  IC50: 2.95 µM

## CN(C)CCC=C1c2ccccc2CCc2ccccc21
  EC50: > 200 µM
  IC50: 34.7 µM

## CN(C)/C=C/c1ccncc1
  EC50: > 200 µM
  IC50: 145 µM

## O=c1cn[nH]c2cccc(Cl)c12
  EC50: > 117 µM
  IC50: > 117 µM

## COc1cccc(/C=C/c2nc3ccccc3nc2/C=C/c2cccc(OC)c2OC)c1OC
  EC50: > 200 µM
  IC50: 55 µM

## CC1=C(C(=O)CC(=O)C(=O)Nc2cccc(C)c2C)Sc2ccccc2N1
  EC50: > 331 µM
  IC50: > 331 µM

## Cc1cccc(N=C2NC(=O)C(CC(=O)Nc3cccc(C)c3C)S2)c1 (configuration not stated)
  EC50: > 70.8 µM
  IC50: > 70.8 µM

## CCN(CC)CCCCCCNc1cc(OC)cc2c(C)ccnc12
  EC50: > 603 µM
  IC50: 19.5 µM

## CCn1c(O)c(C=Nc2ccccc2)s/c1=N/Nc1nc(-c2ccc([N+](=O)[O-])cc2)cs1
  EC50: > 200 µM
  IC50: 14.5 µM

## CCOc1ncnc2ccc(Cl)c(I)c12
  EC50: > 77.6 µM
  IC50: > 77.6 µM

## COc1ccc(NC(=O)C2=C(SC)C(=O)N=C2N)cc1
  EC50: > 100 µM
  IC50: > 100 µM

## CNc1nncc2[nH]cnc12
  EC50: > 200 µM
  IC50: > 200 µM

## CN(C)CCOc1ccc([N+](=O)[O-])c2cccnc12
  EC50: > 100 µM
  IC50: 50.1 µM

## COc1nn(Cc2ccccc2F)c2ccc([N+](=O)[O-])cc12
  EC50: > 200 µM
  IC50: 50.1 µM

## O=C(/C=C(\O)C(=O)O)/C=C(\O)c1ccccc1
  EC50: > 200 µM
  IC50: > 200 µM

## Cc1ns/c(=N\C(=S)N(C)C)n1C
  outcome: inactive

## S=C1CCSc2c(ccc3ccccc23)N1
  EC50: > 200 µM
  IC50: 166 µM

## CCOC(=O)C(CC(C)C)NC(=O)C(Cc1ccc(N(CCCl)CCCl)cc1)NC(C)=O (configuration not stated)
  EC50: > 10.7 µM
  IC50: 0.132 µM

## CC1CC(C)c2c(O)c3c(c(O)c2N1)C(=O)c1ccccc1C3=O (configuration not stated)
  EC50: > 16.2 µM
  IC50: 8.71 µM

## COC(=O)C(CSSCC(C(=O)NC(Cc1ccccc1)C(=O)NCC(=O)OC(C)(C)C)N1C(=O)CCC1=O)NC(=O)OCc1ccccc1 (configuration not stated)
  EC50: > 200 µM
  IC50: 20.4 µM

## O=C(NCCNCCNC(=O)C(F)(F)F)C(F)(F)F
  EC50: > 200 µM
  IC50: > 200 µM

## CC(=O)Oc1ccccc1C(=O)O
  EC50: > 380 µM
  IC50: > 380 µM

## CCOC(=O)/C(=C\n1c(=S)[nH]c2cc(C)ccc21)C(=O)c1ccccc1
  EC50: > 100 µM
  IC50: > 100 µM

## O=C(O)c1n[nH]nc1Cl
  EC50: > 200 µM
  IC50: > 200 µM

## S=C(N/N=C(/c1ccccc1)c1ccccn1)Nc1ccc(Cl)cc1
  EC50: > 0.2 µM
  IC50: 0.123 µM

## O=C1C=CC(=O)c2c1c1c(c3c2C2c4ccccc4C3c3ccccc32)C2c3ccccc3C1c1ccccc12
  EC50: > 10.2 µM
  IC50: > 10.2 µM

## CC12CCC(=O)N1c1ccc([N+](=O)[O-])cc1N2 (configuration not stated)
  outcome: inactive

## Cc1cn(C2C=CC(CO)(C(F)(F)F)O2)c(=O)[nH]c1=O (configuration not stated)
  EC50: > 200 µM
  IC50: > 200 µM

## COc1ccc(CC2(O)C3CC4CCC2C4C3)cc1 (configuration not stated)
  EC50: > 200 µM
  IC50: 87.1 µM

## O=C(O)CC(c1ccccc1)c1ccccc1
  EC50: > 794 µM
  IC50: 437 µM

## COc1ccc2c(c1)[n+]([O-])c(/C(C)=N/NC(=O)CC#N)c[n+]2[O-]
  EC50: > 16.6 µM
  IC50: > 16.6 µM

## Cc1c(/C=C2\CC/C(=C\c3[nH]c(C(=O)OC(C)(C)C)c(C)c3C)C2=O)[nH]c(C(=O)OC(C)(C)C)c1C
  outcome: inactive

## O=C1C[C@H]2[C@@H](O1)[C@@H](O)CN1C(=O)c3ccccc3[C@H]21
  EC50: > 200 µM
  IC50: > 200 µM

## O=C(c1ccccc1)C(c1ccccc1)C1(O)C(=O)Nc2ccc(Br)cc21 (configuration not stated)
  EC50: > 85.1 µM
  IC50: > 85.1 µM

## N#Cc1cc([N+](=O)[O-])ccc1NC(=O)C(=O)C(C(=O)/C=C/c1ccccc1)C1OC(=O)c2ccccc21 (configuration not stated)
  EC50: > 191 µM
  IC50: > 191 µM

## O=c1[nH]nc(NNc2ccccc2)c2nnn(C3CCCCC3)c12
  EC50: > 200 µM
  IC50: 12.6 µM

## CC1=CC2OC3CC4OC(=O)/C=C/C=C/C(C(C)O)OCC(O)C(C)CC(=O)OCC2(CC1O)C4(C)C31CO1 (configuration not stated)
  EC50: > 0.2 µM
  IC50: 0.0631 µM

## COC(=O)N/N=c1\cc(C(=O)Nc2ccc(C)c(C)c2)oc2cc(O)ccc12
  EC50: > 661 µM
  IC50: 575 µM

## CCCCN(CCCC)CC(N=O)c1cc(-c2ccc(Cl)c(Cl)c2)nc2c(Cl)cc(Cl)cc12 (configuration not stated)
  outcome: inactive

## CCOC(=O)C1=C(C)N(NC(N)=O)C2(N)N(NC(N)=O)C(C)=C(C(=O)OCC)C12C(=O)OCC (configuration not stated)
  EC50: > 513 µM
  IC50: > 513 µM

## CN(/N=C/c1cccc2cccnc12)c1c([N+](=O)[O-])cc([N+](=O)[O-])cc1[N+](=O)[O-]
  outcome: inactive

## Cc1ccc(S(=O)(=O)N2CCSCCSCCN(S(=O)(=O)c3ccc(C)cc3)CCN(S(=O)(=O)c3ccc(C)cc3)CC2)cc1
  EC50: > 14.1 µM
  IC50: > 14.1 µM

## [O-][n+]1ccccc1SSc1cccc[n+]1[O-]
  EC50: > 2 µM
  IC50: 0.141 µM

## O=[N+]([O-])c1ccccc1S(=O)(=O)Cc1ccccc1
  EC50: > 245 µM
  IC50: > 245 µM

## O=C(/C=C/c1ccccc1)Oc1cccc2cccnc12
  EC50: > 200 µM
  IC50: 3.63 µM

## C[N+]1(C)C/C(=C\C=C\c2ccccc2)C(=O)/C(=C/C=C/c2ccccc2)C1
  EC50: > 7.76 µM
  IC50: > 7.76 µM

## O=C1N[C@H]2CS(=O)(=O)C[C@H]2N1
  EC50: > 200 µM
  IC50: > 200 µM

## COc1ccc(N=NC(=O)NC(CC(C)C)C(N)=O)cc1 (configuration not stated)
  EC50: > 200 µM
  IC50: 3.39 µM

## CNC(=O)OCc1c(COC(=O)NC)c2n(c1C)CSC2
  EC50: > 200 µM
  IC50: 8.13 µM

## S=C1NC2(CCCCC2)NC12CCCCC2
  EC50: > 200 µM
  IC50: > 200 µM

## CC1=C(C(=O)Nc2ccccc2)C(c2cccc3ccccc23)C(C(=O)Nc2ccccc2)=C(C)N1
  outcome: inactive

## COC(=O)C1C(O)CC(c2ccccn2)N(Cc2ccccc2)C1c1ccccn1 (configuration not stated)
  EC50: > 89.1 µM
  IC50: 83.2 µM

## NC(N)=Nc1ccccc1SSc1ccccc1N=C(N)N
  EC50: 8.13 µM
  IC50: 52.5 µM

## CCCCCCCC(=O)OCC1OC(n2cc(F)c(=O)[nH]c2=O)C(NC(=O)OCc2ccccc2)C(OC(=O)CCCCCCC)C1O (configuration not stated)
  EC50: > 10.7 µM
  IC50: > 10.7 µM

## CC(=O)NC1=N/C(=C\c2ccc(Cl)cc2)C(=O)N1/C=C1\C(=O)Oc2ccccc2C1=O
  EC50: > 200 µM
  IC50: 87.1 µM

## ClC1=C(Cc2ccccc2)Cc2ccc3c(c21)CCC3
  EC50: > 200 µM
  IC50: > 200 µM

## Cc1ccc(NC(=O)c2cc3c(cc2Cl)Sc2nccn2S3(=O)=O)cc1
  EC50: > 200 µM
  IC50: 61.7 µM

## O=C(O)CCCCCCCCC(=O)O
  EC50: > 178 µM
  IC50: > 178 µM

## Cc1nc2c(ccc3c(C)c(C)c(C)nc32)c(C)c1C
  EC50: > 20 µM
  IC50: 0.977 µM

## CCOC(=O)c1c(C)[nH]c(=S)c(C#N)c1-c1ccc(OC)cc1
  EC50: > 200 µM
  IC50: 81.3 µM

## C=C(CCC(=O)N(CCc1c[nH]c2ccccc12)C(=O)c1ccccc1CSCC)C(=O)OC
  EC50: > 200 µM
  IC50: 15.1 µM

## O=C(OCCN1CCCCCC1)C(c1ccsc1)C1CCCCC1 (configuration not stated)
  EC50: > 200 µM
  IC50: 35.5 µM

## CCC1=CCN(c2ccccn2)OC1c1ccc(OC)cc1 (configuration not stated)
  EC50: > 63.1 µM
  IC50: 60.3 µM

## O=C1OCC=C1COC1OC(CO)C(O)C(O)C1O (configuration not stated)
  EC50: > 200 µM
  IC50: 77.6 µM
